compound: C1CC(C2=C(C1)C3=C(N2)C=CC(=C3)Cl)C(=O)N [Selisistat] + CS(=O)(=O)CCNCc1ccc(-c2ccc3ncnc(Nc4ccc(OCc5cccc(F)c5)c(Cl)c4)c3c2)o1 [Lapatinib] (partner 2 µM); test: relative viability (nuclei count vs DMSO), 5 days (fraction); higher = more cells survive; conditions: first compound 0.4 µM
How it was run: (§1)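 One day after seeding in 1536-well plates, lung cancer cell lines were dosed by pin tool. Dosing was either single-drug or a fixed anchor-drug dose plus five library-drug doses (not always all listed) in √10 steps. After 5 days, nuclei were stained in one fix-and-stain step and counted on 4× images, and relative viability is the nuclei count of treated wells over that of vehicle wells, given as the median of duplicate plates.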

Cell Line	relative viability
NCI-H1975	0.823
RERF-LC-KJ	0.857
ABC-1	1.03
NCI-H358	0.492
NCI-H650	1.09
PC-3 [JPC-3]	0.439

same assay, conditions: first compound 1.265 µM

Cell Line	relative viability
NCI-H1975	0.831
RERF-LC-KJ	0.854
ABC-1	1.12
NCI-H358	0.443
PC-3 [JPC-3]	0.457

same assay, conditions: first compound 4 µM

Cell Line	relative viability
NCI-H1975	0.706
RERF-LC-KJ	0.793
ABC-1	1.19
NCI-H650	0.916
PC-3 [JPC-3]	0.398

same assay, conditions: first compound 12.65 µM

Cell Line	relative viability
NCI-H1975	0.759
RERF-LC-KJ	0.811
ABC-1	0.924
NCI-H358	0.397
NCI-H650	0.941
PC-3 [JPC-3]	0.487

same assay, conditions: first compound 40 µM

Cell Line	relative viability
NCI-H1975	0.65
RERF-LC-KJ	0.831
ABC-1	1.24
NCI-H358	0.373
NCI-H650	1.11
PC-3 [JPC-3]	0.417

compound: C1CC(C2=C(C1)C3=C(N2)C=CC(=C3)Cl)C(=O)N [Selisistat] + C[C@@H](Oc1cc(-c2cnn(C3CCNCC3)c2)cnc1N)c1c(Cl)ccc(F)c1Cl [Crizotinib] (partner 1 µM); test: as above; conditions: first compound 0.4 µM
How it was run: as §1

Cell Line	relative viability
NCI-H1975	0.904
RERF-LC-KJ	0.826
ABC-1	1.01
NCI-H358	0.586
NCI-H650	0.707
PC-3 [JPC-3]	1.02

same assay, conditions: first compound 1.265 µM

Cell Line	relative viability
NCI-H1975	0.863
RERF-LC-KJ	0.879
ABC-1	1.19
NCI-H358	0.526
PC-3 [JPC-3]	1.01

same assay, conditions: first compound 4 µM

Cell Line	relative viability
NCI-H1975	0.916
RERF-LC-KJ	0.835
ABC-1	1.1
NCI-H650	0.786
PC-3 [JPC-3]	0.936

same assay, conditions: first compound 12.65 µM

Cell Line	relative viability
NCI-H1975	0.854
RERF-LC-KJ	0.771
ABC-1	0.933
NCI-H358	0.621
NCI-H650	0.596
PC-3 [JPC-3]	1.01

same assay, conditions: first compound 40 µM

Cell Line	relative viability
NCI-H1975	0.807
RERF-LC-KJ	0.716
ABC-1	0.881
NCI-H358	0.613
NCI-H650	0.664
PC-3 [JPC-3]	1.07

compound: C1CC(C2=C(C1)C3=C(N2)C=CC(=C3)Cl)C(=O)N [Selisistat] + C[C@]1(O)C[C@@H](c2nc(-c3ccc4ccc(-c5ccccc5)nc4c3)c3c(N)nccn32)C1 [Linsitinib] (partner 1 µM); test: as above; conditions: first compound 0.4 µM
How it was run: as §1

Cell Line	relative viability
NCI-H1975	0.849
RERF-LC-KJ	0.969
ABC-1	0.649
NCI-H358	0.722
NCI-H650	0.824
PC-3 [JPC-3]	1.01

same assay, conditions: first compound 1.265 µM

Cell Line	relative viability
NCI-H1975	0.805
RERF-LC-KJ	0.878
ABC-1	0.652
NCI-H358	0.726
PC-3 [JPC-3]	0.968

same assay, conditions: first compound 4 µM

Cell Line	relative viability
NCI-H1975	0.871
RERF-LC-KJ	0.937
ABC-1	0.788
NCI-H650	0.987
PC-3 [JPC-3]	0.954

same assay, conditions: first compound 12.65 µM

Cell Line	relative viability
NCI-H1975	0.831
RERF-LC-KJ	0.88
ABC-1	0.726
NCI-H358	0.687
NCI-H650	0.72
PC-3 [JPC-3]	1

same assay, conditions: first compound 40 µM

Cell Line	relative viability
NCI-H1975	0.813
RERF-LC-KJ	0.775
ABC-1	0.721
NCI-H358	0.68
NCI-H650	1.01
PC-3 [JPC-3]	0.987

compound: c1ccc2c(CCNc3ccc(Nc4ccncc4)cc3)c[nH]c2c1 [Serdemetan] + COc1cccc2cc(-c3nc([C@H]4CC[C@H](C(=O)O)CC4)n4ncnc(N)c34)[nH]c12 [OSI-027] (partner 0.5 µM); test: as above; conditions: first compound 0.04 µM
How it was run: as §1

Cell Line	relative viability
NCI-H1975	0.851
RERF-LC-KJ	0.589
ABC-1	0.459
NCI-H358	0.725
NCI-H650	0.471
PC-3 [JPC-3]	0.83

same assay, conditions: first compound 0.1265 µM

Cell Line	relative viability
NCI-H1975	0.753
RERF-LC-KJ	0.711
ABC-1	0.488
NCI-H358	0.816
NCI-H650	0.502
PC-3 [JPC-3]	0.741

same assay, conditions: first compound 0.4 µM

Cell Line	relative viability
NCI-H1975	0.775
RERF-LC-KJ	0.442
ABC-1	0.486
NCI-H358	0.969
NCI-H650	0.578
PC-3 [JPC-3]	0.58

same assay, conditions: first compound 1.265 µM

Cell Line	relative viability
RERF-LC-KJ	0.498
ABC-1	0.296
NCI-H358	0.487
NCI-H650	0.456
PC-3 [JPC-3]	0.749

same assay, conditions: first compound 4 µM

Cell Line	relative viability
NCI-H1975	0.711
RERF-LC-KJ	0.401
ABC-1	0.265
NCI-H358	0.536
NCI-H650	0.584
PC-3 [JPC-3]	0.831

Reference: the supplement of paper PMC10307832
